# Experimental data as given in patent publication US20230085307A1, “PYRIDAZINONE COMPOUND AND HERBICIDE” (NISSAN CHEMICAL CORPORATION, priority 2019, published 2023).
# Experiments:
# barnyard grass [1] = assay: Test Example 3: herbicidal effect by foliage application, Wagner pot (Table 18, symbol H); assay type: in vivo, barnyard grass (Echinochloa crus-galli); details: 320 g/ha
# Method in brief: (§1)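 Plants were sown in alluvial soil held under 0.1–0.5 cm standing water and grown 14 days in a greenhouse at 25–30 °C. An emulsifiable formulation, water-diluted to the set dose, was then sprayed onto the foliage, and effects were scored three weeks later using previously defined criteria.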
# southern crabgrass [2] = assay: Test Example 5: herbicidal effect by foliage application, plastic box (Table 20, symbol F); assay type: in vivo, southern crabgrass (Digitaria ciliaris); details: amount of applied herbicide 320 g/ha; foliage application after 14-day growth; evaluated three weeks after application
# Method in brief: (§2)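 Foliar spray test: emulsion formulation diluted in water to a set application rate, sprayed onto 14-day-old plants raised in diluvial soil at 25° C to 30° C under glass. Both herbicidal effect and crop effect rated visually three weeks later.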
# blackgrass [3] = assay: Test Example 5: herbicidal effect by foliage application, plastic box (Table 20, symbol J); assay type: in vivo, blackgrass (Alopecurus myosuroides); details: amount of applied herbicide 320 g/ha; foliage application after 14-day growth; evaluated three weeks after application
# Method in brief: as §2
# persian speedwell [4] = assay: Test Example 4: herbicidal effect by soil treatment (Table 19, symbol R); assay type: in vivo, Persian speedwell (Veronica persica); details: amount of applied herbicide 320 g/ha
# Method in brief: (§3)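 Step 1: sow seeds in sterilized diluvial soil, cover ~1.5 cm. Step 2: spray diluted emulsion onto soil surface at predetermined rate. Step 3: greenhouse, 25–30° C, three weeks. Step 4: grade effect on each plant by earlier criteria.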
# windgrass [5] = assay: Test Example 5: herbicidal effect by foliage application, plastic box (Table 20, symbol L); assay type: in vivo, windgrass (Apera spica-venti); details: amount of applied herbicide 320 g/ha; foliage application after 14-day growth; evaluated three weeks after application
# Method in brief: as §2
# Italian ryegrass [6] = assay: Test Example 5: herbicidal effect by foliage application, plastic box (Table 20, symbol K); assay type: in vivo, Italian ryegrass (Lolium multiflorum); details: amount of applied herbicide 320 g/ha; foliage application after 14-day growth; evaluated three weeks after application
# Method in brief: as §2
# barnyard grass [7] = assay: Test Example 4: herbicidal effect by soil treatment (Table 19, symbol H); assay type: in vivo, barnyard grass (Echinochloa crus-galli); details: amount of applied herbicide 320 g/ha
# Method in brief: as §3
# lambsquarters [8] = assay: Test Example 4: herbicidal effect by soil treatment (Table 19, symbol O); assay type: in vivo, lambsquarters (Chenopodium album); details: amount of applied herbicide 320 g/ha
# Method in brief: as §3
# rice flat sedge = assay: Test Example 3: herbicidal effect by foliage application, Wagner pot (Table 18, symbol E); assay type: in vivo, rice flat sedge (Cyperus iria); details: 320 g/ha
# Method in brief: as §1
# wild oat [9] = assay: Test Example 4: herbicidal effect by soil treatment (Table 19, symbol I); assay type: in vivo, wild oat (Avena fatua); details: amount of applied herbicide 320 g/ha
# Method in brief: as §3
# windgrass [10] = assay: Test Example 4: herbicidal effect by soil treatment (Table 19, symbol L); assay type: in vivo, windgrass (Apera spica-venti); details: amount of applied herbicide 320 g/ha
# Method in brief: as §3
# lambsquarters [11] = assay: Test Example 5: herbicidal effect by foliage application, plastic box (Table 20, symbol O); assay type: in vivo, lambsquarters (Chenopodium album); details: amount of applied herbicide 320 g/ha; foliage application after 14-day growth; evaluated three weeks after application
# Method in brief: as §2
# Italian ryegrass [12] = assay: Test Example 4: herbicidal effect by soil treatment (Table 19, symbol K); assay type: in vivo, Italian ryegrass (Lolium multiflorum); details: amount of applied herbicide 320 g/ha
# Method in brief: as §3
# redroot pigweed [13] = assay: Test Example 4: herbicidal effect by soil treatment (Table 19, symbol N); assay type: in vivo, redroot pigweed (Amaranthus retroflexus); details: amount of applied herbicide 320 g/ha
# Method in brief: as §3
# wild oat [14] = assay: Test Example 5: herbicidal effect by foliage application, plastic box (Table 20, symbol I); assay type: in vivo, wild oat (Avena fatua); details: amount of applied herbicide 320 g/ha; foliage application after 14-day growth; evaluated three weeks after application
# Method in brief: as §2
# false cleavers = assay: Test Example 4: herbicidal effect by soil treatment (Table 19, symbol Q); assay type: in vivo, false cleavers (Galium spurium); details: amount of applied herbicide 320 g/ha
# Method in brief: as §3
# green foxtail [15] = assay: Test Example 5: herbicidal effect by foliage application, plastic box (Table 20, symbol G); assay type: in vivo, green foxtail (Setaria viridis); details: amount of applied herbicide 320 g/ha; foliage application after 14-day growth; evaluated three weeks after application
# Method in brief: as §2
# green foxtail [16] = assay: Test Example 4: herbicidal effect by soil treatment (Table 19, symbol G); assay type: in vivo, green foxtail (Setaria viridis); details: amount of applied herbicide 320 g/ha
# Method in brief: as §3
# southern crabgrass [17] = assay: Test Example 4: herbicidal effect by soil treatment (Table 19, symbol F); assay type: in vivo, southern crabgrass (Digitaria ciliaris); details: amount of applied herbicide 320 g/ha
# Method in brief: as §3
# velvetleaf [18] = assay: Test Example 4: herbicidal effect by soil treatment (Table 19, symbol M); assay type: in vivo, velvetleaf (Abutilon theophrasti); details: amount of applied herbicide 320 g/ha
# Method in brief: as §3
# Chinese sprangletop = assay: Test Example 3: herbicidal effect by foliage application, Wagner pot (Table 18, symbol D); assay type: in vivo, chinese sprangletop (Leptochloa chinensis); details: 320 g/ha
# Method in brief: as §1
# barnyard grass [19] = assay: Test Example 5: herbicidal effect by foliage application, plastic box (Table 20, symbol H); assay type: in vivo, barnyard grass (Echinochloa crus-galli); details: amount of applied herbicide 320 g/ha; foliage application after 14-day growth; evaluated three weeks after application
# Method in brief: as §2
# chickweed [20] = assay: Test Example 4: herbicidal effect by soil treatment (Table 19, symbol P); assay type: in vivo, common chickweed (Stellaria media); details: amount of applied herbicide 320 g/ha
# Method in brief: as §3
# persian speedwell [21] = assay: Test Example 5: herbicidal effect by foliage application, plastic box (Table 20, symbol R); assay type: in vivo, Persian speedwell (Veronica persica); details: amount of applied herbicide 320 g/ha; foliage application after 14-day growth; evaluated three weeks after application
# Method in brief: as §2
# oval-leafed pondweed = assay: Test Example 1: herbicidal activity, application before weed generation under submerged conditions (Table 16, symbol C); assay type: in vivo, oval-leafed pondweed (Monochoria vaginalis); details: amount of applied herbicide 320 g/ha
# Method in brief: (§4)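 Emulsion formulation, water-diluted to set dose, was put onto the flooded surface (4 cm depth, alluvial soil) the same day weeds were sown and 2.5-leaf rice transplanted. After 3 weeks at 25-30 °C under glass, each species was rated 0 (≤5% kill) to 5 (≥90% kill).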
# Japanese bulrush = assay: Test Example 1: herbicidal activity, application before weed generation under submerged conditions (Table 16, symbol B); assay type: in vivo, Japanese bulrush (Schoenoplectus juncoides); details: amount of applied herbicide 320 g/ha
# Method in brief: as §4
# velvetleaf [22] = assay: Test Example 5: herbicidal effect by foliage application, plastic box (Table 20, symbol M); assay type: in vivo, velvetleaf (Abutilon theophrasti); details: amount of applied herbicide 320 g/ha; foliage application after 14-day growth; evaluated three weeks after application
# Method in brief: as §2
# late watergrass = assay: Test Example 1: herbicidal activity, application before weed generation under submerged conditions (Table 16, symbol A); assay type: in vivo, late watergrass (Echinochloa oryzicola); details: amount of applied herbicide 320 g/ha
# Method in brief: as §4
# chickweed [23] = assay: Test Example 5: herbicidal effect by foliage application, plastic box (Table 20, symbol P); assay type: in vivo, common chickweed (Stellaria media); details: amount of applied herbicide 320 g/ha; foliage application after 14-day growth; evaluated three weeks after application
# Method in brief: as §2
# blackgrass [24] = assay: Test Example 4: herbicidal effect by soil treatment (Table 19, symbol J); assay type: in vivo, blackgrass (Alopecurus myosuroides); details: amount of applied herbicide 320 g/ha
# Method in brief: as §3
# redroot pigweed [25] = assay: Test Example 5: herbicidal effect by foliage application, plastic box (Table 20, symbol N); assay type: in vivo, redroot pigweed (Amaranthus retroflexus); details: amount of applied herbicide 320 g/ha; foliage application after 14-day growth; evaluated three weeks after application
# Method in brief: as §2
smiles,measurement,setting,value
CCCC(=O)Oc1c(C)nn(C)c(=O)c1-c1c(-c2ccc(F)cc2OC)sc2cc(F)c(F)cc12 [5-030],herbicidal effect on barnyard grass (H),barnyard grass [1],4 (Herbicidal rate of 70% or more and less than 90%)
same,"Herbicidal effect by foliage application, F: southern crabgrass",southern crabgrass [2],0 (Herbicidal rate of 5% or less (almost no effect))
same,"Herbicidal effect by foliage application, J: blackgrass",blackgrass [3],4 (Herbicidal rate of 70% or more and less than 90%)
same,"R: persian speedwell, herbicidal effect grade",persian speedwell [4],5 (Herbicidal rate of 90% or more (almost completely withered))
same,"Herbicidal effect by foliage application, L: windgrass",windgrass [5],5 (Herbicidal rate of 90% or more (almost completely withered))
same,"Herbicidal effect by foliage application, K: Italian ryegrass",Italian ryegrass [6],0 (Herbicidal rate of 5% or less (almost no effect))
same,"H: barnyard grass, herbicidal effect grade",barnyard grass [7],2 (Herbicidal rate of 20% or more and less than 40%)
same,"O: lambsquarters, herbicidal effect grade",lambsquarters [8],5 (Herbicidal rate of 90% or more (almost completely withered))
same,herbicidal effect on rice flat sedge (E),rice flat sedge,0 (Herbicidal rate of 5% or less (almost no effect))
same,"I: wild oat, herbicidal effect grade",wild oat [9],0 (Herbicidal rate of 5% or less (almost no effect))
same,"L: windgrass, herbicidal effect grade",windgrass [10],5 (Herbicidal rate of 90% or more (almost completely withered))
same,"Herbicidal effect by foliage application, O: lambsquarters",lambsquarters [11],3 (Herbicidal rate of 40% or more and less than 70%)
same,"K: Italian ryegrass, herbicidal effect grade",Italian ryegrass [12],0 (Herbicidal rate of 5% or less (almost no effect))
same,"N: redroot pigweed, herbicidal effect grade",redroot pigweed [13],5 (Herbicidal rate of 90% or more (almost completely withered))
same,"Herbicidal effect by foliage application, I: wild oat",wild oat [14],0 (Herbicidal rate of 5% or less (almost no effect))
same,"Q: false cleavers, herbicidal effect grade",false cleavers,0 (Herbicidal rate of 5% or less (almost no effect))
same,"Herbicidal effect by foliage application, G: green foxtail",green foxtail [15],0 (Herbicidal rate of 5% or less (almost no effect))
same,"G: green foxtail, herbicidal effect grade",green foxtail [16],4 (Herbicidal rate of 70% or more and less than 90%)
same,"F: southern crabgrass, herbicidal effect grade",southern crabgrass [17],1 (Herbicidal rate of 5% or more and less than 20%)
same,"M: velvetleaf, herbicidal effect grade",velvetleaf [18],3 (Herbicidal rate of 40% or more and less than 70%)
same,herbicidal effect on Chinese sprangletop (D),Chinese sprangletop,0 (Herbicidal rate of 5% or less (almost no effect))
same,"Herbicidal effect by foliage application, H: barnyard grass",barnyard grass [19],2 (Herbicidal rate of 20% or more and less than 40%)
same,"P: chickweed, herbicidal effect grade",chickweed [20],5 (Herbicidal rate of 90% or more (almost completely withered))
same,"Herbicidal effect by foliage application, R: persian speedwell",persian speedwell [21],0 (Herbicidal rate of 5% or less (almost no effect))
same,"Herbicidal effect, C: oval-leafed pondweed",oval-leafed pondweed,0 (Herbicidal rate of 5% or less (almost no effect))
same,"Herbicidal effect, B: Japanese bulrush",Japanese bulrush,1 (Herbicidal rate of 5% or more and less than 20%)
same,"Herbicidal effect by foliage application, M: velvetleaf",velvetleaf [22],3 (Herbicidal rate of 40% or more and less than 70%)
same,"Herbicidal effect, A: late watergrass",late watergrass,3 (Herbicidal rate of 40% or more and less than 70%)
same,"Herbicidal effect by foliage application, P: chickweed",chickweed [23],5 (Herbicidal rate of 90% or more (almost completely withered))
same,"J: blackgrass, herbicidal effect grade",blackgrass [24],5 (Herbicidal rate of 90% or more (almost completely withered))
same,"Herbicidal effect by foliage application, N: redroot pigweed",redroot pigweed [25],3 (Herbicidal rate of 40% or more and less than 70%)
